# Results: ChEMBL document CHEMBL3217491, “Design, synthesis and biological evaluation of imidazopyridine/pyrimidine-chalcone derivatives as potential anticancer agents” (2010)
# The source made the active and inactive calls. The rule behind the calls is not given here.
# What was measured:
# MCF7 [1] = assay: Growth inhibition of human MCF7 cells assessed as cell viability at 4 uM after 24 hrs by MTT assay; format: functional, cell-based
# PC-3 = assay: Growth inhibition of human PC3 cells after 48 hrs by SRB assay; format: functional; settings: PC-3, 48 h
# DU-145 = assay: Growth inhibition of human DU145 cells after 48 hrs by SRB assay; format: functional; settings: DU-145, 48 h
# MCF7 [2] = assay: Growth inhibition of human MCF7 cells after 48 hrs by SRB assay; format: functional; settings: MCF7, 48 h
# MDA-MB-231 = assay: Growth inhibition of human MDA-MB-231 cells after 48 hrs by SRB assay; format: functional; settings: MDA-MB-231, 48 h
# [3] = Growth inhibition of human BT549 cells after 48 hrs by SRB assay; format: functional; settings: BT-549, 48 h
# T47D = assay: Growth inhibition of human T47D cells after 48 hrs by SRB assay; format: functional
# MDA-MB-468 = assay: Growth inhibition of human MDA-MB-468 cells after 48 hrs by SRB assay; format: functional; settings: MDA-MB-468, 48 h
# [4] = Growth inhibition of human LOXIMVI cells after 48 hrs by SRB assay; format: functional; settings: LOX IMVI
# Malme-3M = assay: Growth inhibition of human MALME-3M cells after 48 hrs by SRB assay; format: functional
# M14 = assay: Growth inhibition of human M14 cells after 48 hrs by SRB assay; format: functional; settings: M14, 48 h
# MDA-MB-435 = assay: Growth inhibition of human MDA-MB-435 cells after 48 hrs by SRB assay; format: functional; settings: MDA-MB-435, 48 h
# SK-MEL-2 = assay: Growth inhibition of human SK-MEL-2 cells after 48 hrs by SRB assay; format: functional; settings: SK-MEL-2, 48 h
# SK-MEL-5 = assay: Growth inhibition of human SK-MEL-5 cells after 48 hrs by SRB assay; format: functional; settings: SK-MEL-5, 48 h
# [5] = Growth inhibition of human UACC62 cells after 48 hrs by SRB assay; format: functional; settings: UACC-62, 48 h
# [6] = Growth inhibition of human UACC257 cells after 48 hrs by SRB assay; format: functional; settings: UACC-257, 48 h
# MCF7 [7] = assay: Cell cycle arrest in human MCF7 cells assessed as accumulation at G0/G1 phase at 4 uM after 24 hrs by propidium iodide staining-based flow cytometry (reference value: 64.04%); format: functional
# MCF7 [8] = assay: Cell cycle arrest in human MCF7 cells assessed as accumulation at S phase at 4 uM after 24 hrs by propidium iodide staining-based flow cytometry (reference value: 20.17%); format: functional
# MCF7 [9] = assay: Cell cycle arrest in human MCF7 cells assessed as accumulation at G2/M phase at 4 uM after 24 hrs by propidium iodide staining-based flow cytometry (reference value: 15.79%); format: functional
# CCRF-CEM = assay: Growth inhibition of human CCRF-CEM cells after 48 hrs by SRB assay; format: functional
# HL-60(TB) = assay: Growth inhibition of human HL-60(TB) cells after 48 hrs by SRB assay; format: functional; settings: HL-60, 48 h
# K562 = assay: Growth inhibition of human K562 cells after 48 hrs by SRB assay; format: functional; settings: K562, 48 h
# [10] = Growth inhibition of human MOLT4 cells after 48 hrs by SRB assay; format: functional; settings: MOLT-4, 48 h
# SR = assay: Growth inhibition of human SR cells after 48 hrs by SRB assay; format: functional
# RPMI-8226 = assay: Growth inhibition of human RPMI8226 cells after 48 hrs by SRB assay; format: functional; settings: RPMI-8226, 48 h
# A549 = assay: Growth inhibition of human A549 cells after 48 hrs by SRB assay; format: functional; settings: A549, 48 h
# [11] = Growth inhibition of human EKVX cells after 48 hrs by SRB assay; format: functional
# HOP-62 = assay: Growth inhibition of human HOP62 cells after 48 hrs by SRB assay; format: functional; settings: HOP-62, 48 h
# [12] = Growth inhibition of human HOP92 cells after 48 hrs by SRB assay; format: functional; settings: HOP-92, 48 h
# NCI-H226 = assay: Growth inhibition of human NCI-H226 cells after 48 hrs by SRB assay; format: functional; settings: NCI-H226, 48 h
# NCI-H23 = assay: Growth inhibition of human NCI-H23 cells after 48 hrs by SRB assay; format: functional; settings: NCI-H23, 48 h
# NCI-H322M = assay: Growth inhibition of human NCI-H322M cells after 48 hrs by SRB assay; format: functional
# NCI-H460 = assay: Growth inhibition of human NCI-H460 cells after 48 hrs by SRB assay; format: functional; settings: NCI-H460, 48 h
# NCI-H522 = assay: Growth inhibition of human NCI-H522 cells after 48 hrs by SRB assay; format: functional; settings: NCI-H522, 48 h
# COLO 205 = assay: Growth inhibition of human COLO205 cells after 48 hrs by SRB assay; format: functional; settings: COLO 205, 48 h
# [13] = Growth inhibition of human HCC2998 cells after 48 hrs by SRB assay; format: functional; settings: HCC 2998, 48 h
# HCT-116 = assay: Growth inhibition of human HCT116 cells after 48 hrs by SRB assay; format: functional; settings: HCT-116, 48 h
# [14] = Growth inhibition of human HCT15 cells after 48 hrs by SRB assay; format: functional; settings: HCT-15, 48 h
# HT-29 = assay: Growth inhibition of human HT-29 cells after 48 hrs by SRB assay; format: functional; settings: HT-29, 48 h
# KM12 = assay: Growth inhibition of human KM12 cells after 48 hrs by SRB assay; format: functional; settings: KM12, 48 h
# SF-268 = assay: Growth inhibition of human SF268 cells after 48 hrs by SRB assay; format: functional; settings: SF-268, 48 h
# [15] = Growth inhibition of human SF295 cells after 48 hrs by SRB assay; format: functional; settings: SF-295, 48 h
# [16] = Growth inhibition of human SF539 cells after 48 hrs by SRB assay; format: functional; settings: SF-539, 48 h
# SNB-19 = assay: Growth inhibition of human SNB19 cells after 48 hrs by SRB assay; format: functional; settings: SNB-19, 48 h
# SNB-75 = assay: Growth inhibition of human SNB75 cells after 48 hrs by SRB assay; format: functional; settings: SNB-75, 48 h
# U-251 = assay: Growth inhibition of human U251 cells after 48 hrs by SRB assay; format: functional; settings: U-251, 48 h
# IGROV-1 = assay: Growth inhibition of human IGROV1 cells after 48 hrs by SRB assay; format: functional; settings: IGROV-1, 48 h
# [17] = Growth inhibition of human OVCAR3 cells after 48 hrs by SRB assay; format: functional; settings: OVCAR-3, 48 h
# [18] = Growth inhibition of human OVCAR4 cells after 48 hrs by SRB assay; format: functional; settings: OVCAR-4, 48 h
# [19] = Growth inhibition of human OVCAR5 cells after 48 hrs by SRB assay; format: functional; settings: OVCAR-5, 48 h
# [20] = Growth inhibition of human OVCAR8 cells after 48 hrs by SRB assay; format: functional; settings: OVCAR-8, 48 h
# [21] = Growth inhibition of human NCI-ADR-RES cells after 48 hrs by SRB assay; format: functional
# SK-OV-3 = assay: Growth inhibition of human SKOV3 cells after 48 hrs by SRB assay; format: functional; settings: SK-OV-3, 48 h
# 786-0 = assay: Growth inhibition of human 786-0 cells after 48 hrs by SRB assay; format: functional; settings: 786-0, 48 h
# A498 = assay: Growth inhibition of human A498 cells after 48 hrs by SRB assay; format: functional; settings: A498, 48 h
# ACHN = assay: Growth inhibition of human ACHN cells after 48 hrs by SRB assay; format: functional
# CAKI-1 = assay: Growth inhibition of human Caki1 cells after 48 hrs by SRB assay; format: functional; settings: CAKI-1, 48 h
# SN12C = assay: Growth inhibition of human SN12C cells after 48 hrs by SRB assay; format: functional
# TK-10 = assay: Growth inhibition of human TK10 cells after 48 hrs by SRB assay; format: functional; settings: TK-10, 48 h
# [22] = Growth inhibition of human UO31 cells after 48 hrs by SRB assay; format: functional; settings: UO-31, 48 h
# [23] = Growth inhibition of human Hs578T cells after 48 hrs by SRB assay; format: functional; settings: Hs-578T
# SK-MEL-28 = assay: Growth inhibition of human SK-MEL-28 cells after 48 hrs by SRB assay; format: functional; settings: SK-MEL-28, 48 h
# SW-620 = assay: Growth inhibition of human SW620 cells after 48 hrs by SRB assay; format: functional; settings: SW-620, 48 h
smiles,measurement,setting,value
COc1ccc(/C=C/C(=O)c2cc(OC)c(OC)c(OC)c2)cc1O,inhibition,MCF7 [1],Active
COc1cc(C(=O)/C=C/c2c(-c3cccs3)nc3ccccn23)cc(OC)c1OC,GI50,PC-3,2.63 µM
same,GI50,DU-145,1.9 µM
same,GI50,MCF7 [2],1.12 µM
same,GI50,MDA-MB-231,3.08 µM
same,GI50,[3],1.86 µM
same,GI50,T47D,1.72 µM
same,GI50,MDA-MB-468,1.72 µM
same,GI50,[4],1.87 µM
same,GI50,Malme-3M,3.65 µM
same,GI50,M14,2.08 µM
same,GI50,MDA-MB-435,2.49 µM
same,GI50,SK-MEL-2,2.27 µM
same,GI50,SK-MEL-5,1.33 µM
same,GI50,[5],1.61 µM
same,GI50,[6],1.88 µM
same,inhibition,MCF7 [1],Active
same,Activity,MCF7 [7],92.41%
same,Activity,MCF7 [8],6.48%
same,Activity,MCF7 [9],1.11%
same,GI50,CCRF-CEM,1.66 µM
same,GI50,HL-60(TB),2.01 µM
same,GI50,K562,1.51 µM
same,GI50,[10],1.77 µM
same,GI50,SR,1.23 µM
same,GI50,RPMI-8226,1.34 µM
same,GI50,A549,2.04 µM
same,GI50,[11],3.12 µM
same,GI50,HOP-62,2.88 µM
same,GI50,[12],0.28 µM
same,GI50,NCI-H226,2.04 µM
same,GI50,NCI-H23,2.2 µM
same,GI50,NCI-H322M,3.02 µM
same,GI50,NCI-H460,1.42 µM
same,GI50,NCI-H522,1.1 µM
same,GI50,COLO 205,1.77 µM
same,GI50,[13],1.96 µM
same,GI50,HCT-116,1.63 µM
same,GI50,[14],1.6 µM
same,GI50,HT-29,2.09 µM
same,GI50,KM12,1.32 µM
same,GI50,SF-268,2.37 µM
same,GI50,[15],2.24 µM
same,GI50,[16],1.87 µM
same,GI50,SNB-19,2.1 µM
same,GI50,SNB-75,2.68 µM
same,GI50,U-251,1.66 µM
same,GI50,IGROV-1,1.89 µM
same,GI50,[17],2.44 µM
same,GI50,[18],3.13 µM
same,GI50,[19],2.64 µM
same,GI50,[20],1.68 µM
same,GI50,[21],1.89 µM
same,GI50,SK-OV-3,3.01 µM
same,GI50,786-0,2.31 µM
same,GI50,A498,0.98 µM
same,GI50,ACHN,2.09 µM
same,GI50,CAKI-1,2.31 µM
same,GI50,SN12C,2.44 µM
same,GI50,TK-10,3.78 µM
same,GI50,[22],1.07 µM
COc1ccc(-c2nc3ccccn3c2/C=C/C(=O)c2cc(OC)c(OC)c(OC)c2)cc1OC,GI50,PC-3,3.71 µM
same,GI50,DU-145,2.63 µM
same,GI50,MCF7 [2],2.76 µM
same,GI50,MDA-MB-231,3.28 µM
same,GI50,[23],1.85 µM
same,GI50,[3],0.89 µM
same,GI50,T47D,3.01 µM
same,GI50,MDA-MB-468,2.28 µM
same,GI50,[4],2.26 µM
same,GI50,Malme-3M,2.36 µM
same,GI50,M14,4.48 µM
same,GI50,MDA-MB-435,1.78 µM
same,GI50,SK-MEL-2,2.37 µM
same,GI50,SK-MEL-28,3.3 µM
same,GI50,SK-MEL-5,1.5 µM
same,GI50,[5],4.86 µM
same,GI50,[6],3.24 µM
same,GI50,CCRF-CEM,1.54 µM
same,GI50,HL-60(TB),2.53 µM
same,GI50,K562,2.99 µM
same,GI50,[10],2.18 µM
same,GI50,SR,1.9 µM
same,GI50,RPMI-8226,0.39 µM
same,GI50,A549,3.86 µM
same,GI50,[11],1.71 µM
same,GI50,HOP-62,4.42 µM
same,GI50,NCI-H226,6.1 µM
same,GI50,NCI-H23,3.78 µM
same,GI50,NCI-H322M,2.08 µM
same,GI50,NCI-H460,2.99 µM
same,GI50,NCI-H522,2.74 µM
same,GI50,COLO 205,3.92 µM
same,GI50,[13],3.8 µM
same,GI50,HCT-116,2.62 µM
same,GI50,[14],3.73 µM
same,GI50,HT-29,3.2 µM
same,GI50,KM12,2.52 µM
same,GI50,SW-620,2.78 µM
same,GI50,SF-268,3.58 µM
same,GI50,[15],1.85 µM
same,GI50,[16],2.71 µM
same,GI50,SNB-19,4.91 µM
same,GI50,SNB-75,3.92 µM
same,GI50,U-251,2.91 µM
same,GI50,IGROV-1,3.03 µM
same,GI50,[17],2.47 µM
same,GI50,[18],2.43 µM
same,GI50,[19],7.38 µM
same,GI50,[20],2.83 µM
same,GI50,[21],2.18 µM
same,GI50,SK-OV-3,4.92 µM
same,GI50,786-0,3.74 µM
same,GI50,A498,2.93 µM
same,GI50,ACHN,3.22 µM
same,GI50,CAKI-1,1.39 µM
same,GI50,SN12C,4.1 µM
same,GI50,TK-10,3.28 µM
same,GI50,[22],0.55 µM
